One data set concerns the target CYP2E1 (Oryctolagus cuniculus, UniProt P08682). Kind of data set: time- and concentration-dependent (mechanism-based) inactivation of 7-EFC O-deethylation, KI with kinact […] min^-1. The format is biochemical. The note with it: read-out: KI_inact.
A further data set addresses T1, CYP4A11 (Homo sapiens, UniProt Q02928).
T1 sequence (Q02928 5-519): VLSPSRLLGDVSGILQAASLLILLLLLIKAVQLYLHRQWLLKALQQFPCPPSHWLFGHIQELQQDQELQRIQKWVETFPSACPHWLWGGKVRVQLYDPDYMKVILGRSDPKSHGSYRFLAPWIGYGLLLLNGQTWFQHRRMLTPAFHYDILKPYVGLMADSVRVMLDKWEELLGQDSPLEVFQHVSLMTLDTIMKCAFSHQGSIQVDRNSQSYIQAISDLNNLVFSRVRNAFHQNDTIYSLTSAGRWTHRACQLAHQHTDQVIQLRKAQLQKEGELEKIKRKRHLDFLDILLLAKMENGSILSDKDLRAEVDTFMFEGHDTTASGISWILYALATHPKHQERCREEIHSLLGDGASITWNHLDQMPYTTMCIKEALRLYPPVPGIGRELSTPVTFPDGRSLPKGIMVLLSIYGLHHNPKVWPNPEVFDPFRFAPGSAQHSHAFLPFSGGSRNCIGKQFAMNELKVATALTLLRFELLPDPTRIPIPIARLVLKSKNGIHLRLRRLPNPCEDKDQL
Kind of data set: inhibition of lauric acid omega-hydroxylation by CYP4A11 supersomes, HPLC-fluorescence, Lineweaver-Burk. It counts as biochemical.

Substrate in data set [1]: CCCCCCCCCCCC(=O)O
Kind of data set: Michaelis-Menten kinetics of omega-hydroxylation by CYP4A11 supersomes (Km). The format is biochemical, Homo sapiens. The note with it: heme; NADPH.

Sequence of CYP2E1 (P08682 whole entry): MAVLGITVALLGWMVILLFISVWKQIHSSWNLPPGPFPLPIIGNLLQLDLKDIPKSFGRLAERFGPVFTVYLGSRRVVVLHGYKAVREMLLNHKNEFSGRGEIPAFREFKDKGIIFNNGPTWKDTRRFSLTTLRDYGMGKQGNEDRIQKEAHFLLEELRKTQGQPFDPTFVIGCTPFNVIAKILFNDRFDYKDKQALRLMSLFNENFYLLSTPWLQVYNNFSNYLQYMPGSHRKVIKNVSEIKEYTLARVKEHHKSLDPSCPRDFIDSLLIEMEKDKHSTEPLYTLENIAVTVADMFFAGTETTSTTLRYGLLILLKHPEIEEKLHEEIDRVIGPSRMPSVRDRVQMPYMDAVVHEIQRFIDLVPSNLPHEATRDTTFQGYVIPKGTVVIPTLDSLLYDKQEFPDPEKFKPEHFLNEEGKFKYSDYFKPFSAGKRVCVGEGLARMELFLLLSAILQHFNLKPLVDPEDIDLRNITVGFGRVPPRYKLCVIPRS

As for `CCCCCCCCCCCCOC(=S)S` [C12, potassium O-dodecyl carbonodithioate], the KI (inactivation) at CYP2E1 amounted to 312 µM. Besides, on CYP4A11, the Ki – broadly, the dissociation constant of the complex between target and ligand, obtained from inhibition or displacement – amounted to 9 ± 1 µM.

B1: CYP4A11 (Homo sapiens) (protein)
chain: VLSPSRLLGDVSGILQAASLLILLLLLIKAVQLYLHRQWLLKALQQFPCPPSHWLFGHIQELQQDQELQRIQKWVETFPSACPHWLWGGKVRVQLYDPDYMKVILGRSDPKSHGSYRFLAPWIGYGLLLLNGQTWFQHRRMLTPAFHYDILKPYVGLMADSVRVMLDKWEELLGQDSPLEVFQHVSLMTLDTIMKCAFSHQGSIQVDRNSQSYIQAISDLNNLVFSRVRNAFHQNDTIYSLTSAGRWTHRACQLAHQHTDQVIQLRKAQLQKEGELEKIKRKRHLDFLDILLLAKMENGSILSDKDLRAEVDTFMFEGHDTTASGISWILYALATHPKHQERCREEIHSLLGDGASITWNHLDQMPYTTMCIKEALRLYPPVPGIGRELSTPVTFPDGRSLPKGIMVLLSIYGLHHNPKVWPNPEVFDPFRFAPGSAQHSHAFLPFSGGSRNCIGKQFAMNELKVATALTLLRFELLPDPTRIPIPIARLVLKSKNGIHLRLRRLPNPCEDKDQL
With B1, the Km (in general, the substrate concentration at which the rate is half of its maximum) in data set [1] amounted to 11.8 µM.

The values are drawn from publication PMC5614966, “Xanthates As Useful Probes for Testing the Active Sites of Cytochromes P450 4A11 and 2E1” (Frontiers in Pharmacology, 2017).
